From ChEMBL document CHEMBL1124969, “GABA agonists and uptake inhibitors. Synthesis, absolute stereochemistry, and enantioselectivity of (R)-(-)- and (S)-(+)-homo-beta-proline” (J Med Chem, 1990)

Legend:
[1] = target: GABA-A receptor; anion channel; test: In vitro binding affinity against Gamma-aminobutyric acid A receptor in rat brain synaptic membranes at pH 7.1; format: cell membranes
[2] = target: GABA B receptor (Rattus norvegicus, UniProt O88871+Q9Z0U4); test: In vitro binding affinity against Gamma-aminobutyric acid type B receptor in rat brain synaptic membranes at pH 7.4; format: cell membranes
Sequence of GABA B receptor (Q9Z0U4 whole entry): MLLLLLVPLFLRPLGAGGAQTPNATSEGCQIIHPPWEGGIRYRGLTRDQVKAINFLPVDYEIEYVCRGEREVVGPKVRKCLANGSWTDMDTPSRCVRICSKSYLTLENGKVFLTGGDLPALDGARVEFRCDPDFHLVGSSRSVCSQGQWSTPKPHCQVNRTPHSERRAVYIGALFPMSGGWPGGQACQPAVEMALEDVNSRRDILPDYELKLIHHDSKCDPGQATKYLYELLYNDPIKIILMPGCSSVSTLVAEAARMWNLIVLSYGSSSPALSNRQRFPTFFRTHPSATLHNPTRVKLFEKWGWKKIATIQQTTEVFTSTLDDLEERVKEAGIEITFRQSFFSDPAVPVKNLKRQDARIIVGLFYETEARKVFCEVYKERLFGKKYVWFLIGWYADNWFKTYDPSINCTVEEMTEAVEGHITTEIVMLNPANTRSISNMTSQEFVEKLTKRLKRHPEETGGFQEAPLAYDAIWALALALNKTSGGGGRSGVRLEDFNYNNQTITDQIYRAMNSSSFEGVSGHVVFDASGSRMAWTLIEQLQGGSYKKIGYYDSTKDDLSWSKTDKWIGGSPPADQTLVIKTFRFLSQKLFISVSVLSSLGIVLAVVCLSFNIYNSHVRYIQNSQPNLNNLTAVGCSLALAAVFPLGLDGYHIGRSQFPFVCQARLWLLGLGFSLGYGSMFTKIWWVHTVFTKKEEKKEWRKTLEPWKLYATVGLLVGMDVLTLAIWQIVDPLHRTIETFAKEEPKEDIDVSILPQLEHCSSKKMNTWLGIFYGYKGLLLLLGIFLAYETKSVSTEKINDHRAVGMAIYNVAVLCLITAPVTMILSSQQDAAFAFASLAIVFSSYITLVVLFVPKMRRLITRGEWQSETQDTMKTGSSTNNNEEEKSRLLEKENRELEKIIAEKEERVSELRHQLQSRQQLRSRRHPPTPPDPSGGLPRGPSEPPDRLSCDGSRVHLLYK
Sequence of GABA B receptor (O88871 whole entry): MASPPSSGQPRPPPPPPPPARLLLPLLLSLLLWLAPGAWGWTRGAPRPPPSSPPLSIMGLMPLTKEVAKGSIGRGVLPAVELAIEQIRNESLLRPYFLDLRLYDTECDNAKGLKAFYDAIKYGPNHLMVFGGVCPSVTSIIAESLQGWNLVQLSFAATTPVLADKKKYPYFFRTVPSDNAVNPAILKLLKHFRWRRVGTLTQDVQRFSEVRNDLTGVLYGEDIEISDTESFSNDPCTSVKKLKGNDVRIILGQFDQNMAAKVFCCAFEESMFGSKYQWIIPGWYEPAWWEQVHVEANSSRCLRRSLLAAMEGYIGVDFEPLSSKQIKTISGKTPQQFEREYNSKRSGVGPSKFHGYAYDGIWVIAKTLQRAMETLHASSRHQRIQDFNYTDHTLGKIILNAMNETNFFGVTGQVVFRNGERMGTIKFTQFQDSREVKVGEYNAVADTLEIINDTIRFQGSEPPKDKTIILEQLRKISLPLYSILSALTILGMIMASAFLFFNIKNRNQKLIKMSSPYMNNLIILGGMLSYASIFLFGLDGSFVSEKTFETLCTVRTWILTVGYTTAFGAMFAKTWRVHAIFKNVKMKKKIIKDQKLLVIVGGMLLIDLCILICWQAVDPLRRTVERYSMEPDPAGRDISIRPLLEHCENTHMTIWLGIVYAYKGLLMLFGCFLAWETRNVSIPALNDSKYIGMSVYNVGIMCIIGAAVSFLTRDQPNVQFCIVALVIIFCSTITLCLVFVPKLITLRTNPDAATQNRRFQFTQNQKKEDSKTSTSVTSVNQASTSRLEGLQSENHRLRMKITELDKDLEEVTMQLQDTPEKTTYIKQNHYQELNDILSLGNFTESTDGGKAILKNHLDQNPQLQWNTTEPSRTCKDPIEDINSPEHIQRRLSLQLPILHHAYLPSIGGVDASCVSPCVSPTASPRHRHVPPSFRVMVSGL

IC50 [1] [nM] | IC50 [2] [nM] | SMILES
900 | 7800 | O=C(O)C[C@@H]1CCNC1
70 | > 100000 | O=C(O)C[C@H]1CCNC1
200 | 14100 | O=C(O)CC1CCNC1 (racemic)
